Source: patent publication US10167288B2, “Substituted pyrazolylpyrazole derivative and use of same as herbicide” (KYOYU AGRI CO., LTD., priority 2015, dated 2019)

Tests used:
Type in all cases: in vivo
Scirpus juncoides = assay: Paddy herbicidal activity test; conditions: dropped into paddy water at 3.5 leaf stage of Echinochloa crus-galli, 30 days, 30° C., vs untreated group
Experimental: (§1) 1. Paddy Herbicidal Activity Test
(§2) Rice paddy soil was filled into a 1/10000 are pot followed by the addition of suitable amounts of water and chemical fertilizer, kneading, seeding with Echinochloa crus-galli, Monochoria vaginalis and Scirpus juncoides and maintaining in an irrigated state at a water depth of 3 cm.
(§3) Wettable powders of Target Compound (I) shown in Table 1 prepared in compliance with the preparation examples were diluted with a suitable amount of water, rice plants in the 2.0 leaf stage were transplanted during 3.5 leaf stage of Echinochloa crus-galli, and treated by dropping in chemical in the prescribed amount per 10 are using a pipette.
(§4) After treating for 30 days in a glass greenhouse at an average atmospheric temperature of 30° C., the herbicidal efficacy thereof was investigated.
(§5) Evaluation of herbicidal efficacy was carried out by comparing growth inhibition rate (%) with an untreated group, while evaluation of phytotoxicity was carried out by comparing growth inhibition rate (%) with the state of a complete eradication group, and were evaluated at 11 levels indicated below.

Echinochloa crus-galli = assay: Paddy herbicidal activity test; conditions: dropped into paddy water at 3.5 leaf stage of Echinochloa crus-galli, 30 days, 30° C., vs untreated group
Experimental: as §1, §2, §3, §4, §5

Monochoria vaginalis = assay: Paddy herbicidal activity test; conditions: dropped into paddy water at 3.5 leaf stage of Echinochloa crus-galli, 30 days, 30° C., vs untreated group
Experimental: as §1, §2, §3, §4, §5

Amaranthus retroflexus [1] = assay: Weed foliar treatment test (Test Example 3); conditions: foliar spray at 1.0 to 2.0 leaf stage of Digitaria ciliaris, 3 weeks, 25° C.
Experimental: (§6) 3. Weed Foliar Treatment Test
(§7) Soil was filled into a 1/6000 are pot followed by seeding with Digitaria ciliaris, Chenopodium album and Amaranthus retroflexus, covering with soil, and cultivating in a glass greenhouse at an average atmospheric temperature of 25° C.
(§8) Wettable powders of Target Compound (I) shown in Table 1 prepared in compliance with the preparation examples were diluted with water to the prescribed amount of chemical and uniformly sprayed onto the weeds using 150 liters of sprayed water per 10 are when Digitaria ciliaris had grown to the 1.0 to 2.0 leaf stage.
(§9) After treating for 3 weeks in a glass greenhouse at an average atmospheric temperature of 25° C., the herbicidal efficacy thereof was investigated.
(§10) Evaluation of herbicidal efficacy was carried out in the same manner as the above-mentioned Test Example 1.

Chenopodium album [2] = assay: Weed foliar treatment test (Test Example 3); conditions: foliar spray at 1.0 to 2.0 leaf stage of Digitaria ciliaris, 3 weeks, 25° C.
Experimental: as §6, §7, §8, §9, §10

Digitaria ciliaris [3] = assay: Weed foliar treatment test (Test Example 3); conditions: foliar spray at 1.0 to 2.0 leaf stage of Digitaria ciliaris, 3 weeks, 25° C.
Experimental: as §6, §7, §8, §9, §10

Oryza sativa = assay: Paddy herbicidal activity test, phytotoxicity to transplanted rice; conditions: rice transplanted in the 2.0 leaf stage, 30 days, 30° C., vs complete eradication group
Experimental: as §1, §2, §3, §4, §5

Galinsoga parviflora = assay: Weed foliar treatment test (Test Example 4); conditions: 10 g a.i./10 a; foliar spray at 4.0 to 5.0 leaf stage of Digitaria ciliaris (plant height 10 cm to 15 cm); 20 days, 25° C.
Experimental: (§11) 4. Weed Foliar Treatment Test
(§12) Field soil was filled into a 1/4500 are pot followed by seeding with Digitaria ciliaris and Galinsoga parviflora, covering with soil and cultivating in a glass greenhouse at an average atmospheric temperature of 25° C.
as §8, with “100” for “150”, “4.0” for “1.0”, “5.0” for “2.0”, “stage (plant height: 10 cm to 15 cm).” for “stage.”
(§13) After treating for 20 days in a glass greenhouse at an average atmospheric temperature of 25° C., the herbicidal efficacy thereof was investigated.
as §10

Digitaria ciliaris [4] = assay: Weed foliar treatment test (Test Example 4); conditions: 10 g a.i./10 a; foliar spray at 4.0 to 5.0 leaf stage of Digitaria ciliaris (plant height 10 cm to 15 cm); 20 days, 25° C.
Experimental: as §11, §12
as §8, with “100” for “150”, “4.0” for “1.0”, “5.0” for “2.0”, “stage (plant height: 10 cm to 15 cm).” for “stage.”
as §13, §10

Amaranthus retroflexus [5] = assay: Farming soil treatment test; conditions: soil surface spray prior to weed growth, 30 days, 30° C.
Experimental: (§14) 2. Farming Soil Treatment Test Field soil was filled into a 1/6000 are pot followed by seeding with Digitaria ciliaris Chenopodium album and Amaranthus retroflexus and covering with soil. Wettable powders of compounds of formula (I) shown in Table 1 prepared in compliance with the preparation examples were diluted with water to the prescribed amount of chemical and uniformly sprayed onto each soil surface layer using 100 liters of sprayed water per 10 are prior to weed growth following seeding. After treating for 30 days in a glass greenhouse at an average atmospheric temperature of 30° C., the herbicidal efficacy thereof was investigated. Evaluation of herbicidal efficacy was carried out in the same manner as the above-mentioned Test Example 1.

Chenopodium album [6] = assay: Farming soil treatment test; conditions: soil surface spray prior to weed growth, 30 days, 30° C.
Experimental: as §14

Digitaria ciliaris [7] = assay: Farming soil treatment test; conditions: soil surface spray prior to weed growth, 30 days, 30° C.
Experimental: as §14

| SMILES | herbicidal efficacy, Scirpus juncoides (Scirpus juncoides; 1 g a.i./10 a) | herbicidal efficacy, Scirpus juncoides (Scirpus juncoides; 5 g a.i./10 a) | herbicidal efficacy, Echinochloa crus-galli (Echinochloa crus-galli; 1 g a.i./10 a) | herbicidal efficacy, Echinochloa crus-galli (Echinochloa crus-galli; 5 g a.i./10 a) | herbicidal efficacy, Monochoria vaginalis (Monochoria vaginalis; 1 g a.i./10 a) | herbicidal efficacy, Monochoria vaginalis (Monochoria vaginalis; 5 g a.i./10 a) | herbicidal efficacy, Amaranthus retroflexus (Amaranthus retroflexus [1]; 5 g a.i./10 a) | herbicidal efficacy, Amaranthus retroflexus (Amaranthus retroflexus [1]; 10 g a.i./10 a) | herbicidal efficacy, Chenopodium album (Chenopodium album [2]; 5 g a.i./10 a) | herbicidal efficacy, Chenopodium album (Chenopodium album [2]; 10 g a.i./10 a) | herbicidal efficacy, Digitaria ciliaris (Digitaria ciliaris [3]; 5 g a.i./10 a) | herbicidal efficacy, Digitaria ciliaris (Digitaria ciliaris [3]; 10 g a.i./10 a) | phytotoxicity, Oryza sativa (Oryza sativa; 1 g a.i./10 a) | phytotoxicity, Oryza sativa (Oryza sativa; 5 g a.i./10 a) | herbicidal efficacy, Galinsoga parviflora (Galinsoga parviflora) | herbicidal efficacy, Digitaria ciliaris (Digitaria ciliaris [4]) | herbicidal efficacy, Amaranthus retroflexus (Amaranthus retroflexus [5]; 5 g a.i./10 a) | herbicidal efficacy, Amaranthus retroflexus (Amaranthus retroflexus [5]; 10 g a.i./10 a) | herbicidal efficacy, Chenopodium album (Chenopodium album [6]; 5 g a.i./10 a) | herbicidal efficacy, Chenopodium album (Chenopodium album [6]; 10 g a.i./10 a) | further results |
| --- | --- | --- | --- | --- | --- | --- | --- | --- | --- | --- | --- | --- | --- | --- | --- | --- | --- | --- | --- | --- | --- |
| CCOC(=O)Nc1c(C#N)cnn1-c1nn2c(c1Cl)CCCC2 [Compound 1, Ethyl N-(1-(3-chloro-4,5,6,7-tetrahydropyrazolo[1,5-a]pyridin-2-yl)-4-cyanopyrazol-5-yl) Carbamate] | 10 (100%) | 10 (100%) | 10 (100%) | 10 (100%) | 10 (100%) | 10 (100%) | 10 (100%) | 10 (100%) | 10 (100%) | 10 (100%) | 10 (100%) | 10 (100%) | 1 (10% to less than 20%) | 1 (10% to less than 20%) | 10 (100%) | 10 (100%) | 10 (100%) | 10 (100%) | 10 (100%) | 10 (100%) | herbicidal efficacy, Digitaria ciliaris (Digitaria ciliaris [7]; 5 g a.i./10 a): 10 (100%); herbicidal efficacy, Digitaria ciliaris (Digitaria ciliaris [7]; 10 g a.i./10 a): 10 (100%) |
| COC(=O)Nc1c(C#N)cnn1-c1nn2c(c1Cl)CCC2 [Compound 3] | 9 (90% to less than 100%) | 10 (100%) | 10 (100%) | 10 (100%) | 10 (100%) | 10 (100%) | 10 (100%) | 10 (100%) | 10 (100%) | 10 (100%) | 10 (100%) | 10 (100%) | 1 (10% to less than 20%) | 1 (10% to less than 20%) | 10 (100%) | 10 (100%) | 10 (100%) | 10 (100%) | 9 (90% to less than 100%) | 10 (100%) | herbicidal efficacy, Digitaria ciliaris (Digitaria ciliaris [7]; 5 g a.i./10 a): 10 (100%); herbicidal efficacy, Digitaria ciliaris (Digitaria ciliaris [7]; 10 g a.i./10 a): 10 (100%) |
| CCCOC(=O)Nc1c(C#N)cnn1-c1nn2c(c1Cl)CCCC2 [Compound 4] |  |  |  |  |  |  |  |  |  |  |  |  |  |  | 10 (100%) | 10 (100%) |  |  |  |  |  |
| COC(=O)Nc1c(C#N)cnn1-c1nn2c(c1Cl)CCCC2 [Compound 7] | 9 (90% to less than 100%) | 10 (100%) | 10 (100%) | 10 (100%) | 10 (100%) | 10 (100%) | 10 (100%) | 10 (100%) | 10 (100%) | 10 (100%) | 10 (100%) | 10 (100%) | 1 (10% to less than 20%) | 1 (10% to less than 20%) | 10 (100%) | 10 (100%) | 10 (100%) | 10 (100%) | 9 (90% to less than 100%) | 10 (100%) | herbicidal efficacy, Digitaria ciliaris (Digitaria ciliaris [7]; 5 g a.i./10 a): 10 (100%); herbicidal efficacy, Digitaria ciliaris (Digitaria ciliaris [7]; 10 g a.i./10 a): 10 (100%) |
| CC(C)COC(=O)Nc1c(C#N)cnn1-c1nn2c(c1Cl)CCCC2 [Compound 10] |  |  |  |  |  |  |  |  |  |  |  |  |  |  | 10 (100%) | 10 (100%) |  |  |  |  |  |
| CCSC(=O)Nc1c(C#N)cnn1-c1nn2c(c1Cl)CCCC2 [Compound 11] |  |  |  |  |  |  |  |  |  |  |  |  |  |  | 10 (100%) | 10 (100%) |  |  |  |  |  |
| CCOC(=O)Nc1c([N+](=O)[O-])cnn1-c1nn2c(c1Cl)CCCC2 [Control agent 2.28, reference compound] | 1 (10% to less than 20%) | 2 (20% to less than 30%) | 1 (10% to less than 20%) | 2 (20% to less than 30%) | 3 (30% to less than 40%) | 4 (40% to less than 50%) | 3 (30% to less than 40%) | 6 (60% to less than 70%) | 6 (60% to less than 70%) | 7 (70% to less than 80%) | 2 (20% to less than 30%) | 4 (40% to less than 50%) | 0 (0% to less than 10% (growth inhibition rate)) | 1 (10% to less than 20%) | 2 (20% to less than 30%) | 1 (10% to less than 20%) | 3 (30% to less than 40%) | 5 (50% to less than 60%) | 4 (40% to less than 50%) | 5 (50% to less than 60%) | herbicidal efficacy, Digitaria ciliaris (Digitaria ciliaris [7]; 5 g a.i./10 a): 1 (10% to less than 20%); herbicidal efficacy, Digitaria ciliaris (Digitaria ciliaris [7]; 10 g a.i./10 a): 2 (20% to less than 30%) |
